This data set has as its system SKOV-3 cancer cell lines. The experiment in a line: SKOV-3 cell viability after treatment with 10 μM test compound. It is filed as cell-based. The settings on record: for % viability after treatment with 10 micromolar of test compound (SKOV-3 cells): 10 micromolar test compound; for viability at 10 µM: Homo sapiens, SK-OV-3, 10 micromolar test compound, SKOV-3 cells. As to the method:
SKOV-3 cancer cell lines were treated with a test compound, either as a pure enantiomer or a mixture of stereoisomers, at a concentration of 10 μM. Cell viability was evaluated following treatment with a compound as disclosed in Table B. Viability of cancer cells following treatment is indicated according to the following legend:
A=0-25% viability B=26-50% viability C=>50% viability

Molecules are shown by their SMILES. Structures can show the parent of a compound that is named as a salt. Where only a bound is given, the exact number is not on record here.

Turning to `CN[C@@H](C)C(=O)N[C@H]1CCO[C@H]2CC(CCc3ccccc3)(CCc3ccccc3)[C@@H](C(=O)N[C@@H]3CCCc4ccccc43)N2C1=O` [Compound 24, (4S,9aS)-4-((S)-2-(methylamino)propanamido)-5-oxo-8,8-diphenethyl-N—((R)-1,2,3,4-tetrahydronaphthalen-1-yl)octahydropyrrolo[2,1-b][1,3]oxazepine-7-carboxamide hydrochloride], for the setting “hydrochloride”, the “% viability after treatment with 10 micromolar of test compound (SKOV-3 cells)” value (“% viability after treatment” for short) is reported as “B (B=26-50% viability)”.
In the case of `CN[C@@H](C)C(=O)N[C@H]1CCS[C@H]2CC(C)(C)[C@@H](C(=O)N[C@H]3c4ccccc4C[C@H]3OCCF)N2C1=O` [Compound 78, (4S,7S,9aS)—N-((1S,2R)-2-(2-fluoroethoxy)-2,3-dihydro-1H-inden-1-yl)-8,8-dimethyl-4-((S)-2-(methylamino)propanamido)-5-oxooctahydropyrrolo[2,1-b][1,3]thiazepine-7-carboxamide hydrochloride], the viability (as a rule, a read-out of living cells in per cent, often relative to untreated cells) at 10 µM was 0 to 25%.
On the same count and under the same terms, the figure for `CN[C@@H](C)C(=O)N[C@H]1Cc2ccc(OC)cc2[C@H]2CC(C)(C)[C@H](C(=O)N[C@@H]3CCCc4ccccc43)N2C1=O` [Compound 10, (6S,11bR)-10-methoxy-2,2-dimethyl-6-((S)-2-(methylamino)propanamido)-5-oxo-N—((R)-1,2,3,4-tetrahydronaphthalen-1-yl)-2,3,5,6,7,11b-hexahydro-1H-benzo[c]pyrrolo[1,2-a]azepine-3-carboxamide hydrochloride] is 26 to 50%; for `CN[C@@H](C)C(=O)N[C@H]1Cc2c([nH]c3ccccc23)[C@H]2CC(C)(C)[C@@H](C(=O)NC(c3ccccc3)c3ccccc3)N2C1=O` [Compound 54, (6S)—N-benzhydryl-2,2-dimethyl-6-((S)-2-(methylamino)propanamido)-5-oxo-1,2,3,5,6,7,12,12b-octahydropyrrolo[1′,2′:1,2]azepino[3,4-b]indole-3-carboxamide hydrochloride] it is above 50%.
`CCC1(CC)C[C@@H]2OCC[C@H](NC(=O)[C@H](C)NC)C(=O)N2[C@@H]1C(=O)NC(c1ccccc1)c1ccccc1` [Compound 59, (4S)—N-benzhydryl-8,8-diethyl-4-((S)-2-(methylamino)propanamido)-5-oxooctahydropyrrolo[2,1-b][1,3]oxazepine-7-carboxamide hydrochloride]: for the setting “hydrochloride”, the “% viability after treatment” value was “A (A=0-25% viability)”.
Still for that read-out and setting: next, `CCC1(CC)C[C@@H]2SCC[C@H](NC(=O)[C@H](C)NC)C(=O)N2[C@@H]1C(=O)N[C@@H]1CCCc2ccccc21` [Compound 39, (4S,9aS)-8,8-diethyl-4-((S)-2-(methylamino)propanamido)-5-oxo-N—((R)-1,2,3,4-tetrahydronaphthalen-1-yl)octahydropyrrolo[2,1-b][1,3]thiazepine-7-carboxamide hydrochloride]: “B (B=26-50% viability)”.
With `CN[C@@H](C)C(=O)N[C@H]1CCO[C@H]2CC(C)(C)[C@@H](CN[C@@H]3CCSc4ccccc43)N2C1=O` [Compound 67, (S)—N-((4S,7S,9aS)-8,8-dimethyl-5-oxo-7-((((R)-thiochroman-4-yl)amino)methyl)octahydropyrrolo[2,1-b][1,3]oxazepin-4-yl)-2-(methylamino)propanamide dihydrochloride], the “% viability after treatment” value (dihydrochloride) is reported as “B (B=26-50% viability)”.
In the case of `CN[C@@H](C)C(=O)N[C@H]1CCO[C@H]2CC(CCc3ccccc3)(CCc3ccccc3)[C@@H](C(=O)N[C@@H]3CCCc4ccccc43)N2C1=O` [Compound 25, (4S,9aS)-4-((S)-2-(methylamino)propanamido)-5-oxo-8,8-diphenethyl-N—((R)-1,2,3,4-tetrahydronaphthalen-1-yl)octahydropyrrolo[2,1-b][1,3]oxazepine-7-carboxamide hydrochloride], the “% viability after treatment” value (hydrochloride) is given as “B (B=26-50% viability)”.
As for `CN[C@@H](C)C(=O)N[C@H]1Cc2cc(OC)ccc2[C@H]2CC(C)(C)C(C(=O)N[C@@H]3CCCc4ccccc43)N2C1=O` (stereo partly shown) [Compound 34], the “% viability after treatment” value was “C (C=>50% viability)”.
As for `C=CCC1(CC=C)C[C@@H]2SCC[C@H](NC(=O)[C@H](C)NC)C(=O)N2[C@@H]1C(=O)N[C@@H]1CCCc2ccccc21` [Compound 31, (4S,9aS)-8,8-diallyl-4-((S)-2-(methylamino)propanamido)-5-oxo-N—((R)-1,2,3,4-tetrahydronaphthalen-1-yl)octahydropyrrolo[2,1-b][1,3]thiazepine-7-carboxamide hydrochloride], the “% viability after treatment” value (hydrochloride) is on record as “B (B=26-50% viability)”.
`CCC1(CC)C[C@@H]2OCC[C@H](NC(=O)[C@H](C)NC)C(=O)N2[C@@H]1C(=O)NC(c1ccccc1)c1ccccc1` [Compound 58, (4S)—N-benzhydryl-8,8-diethyl-4-((S)-2-(methylamino)propanamido)-5-oxooctahydropyrrolo[2,1-b][1,3]oxazepine-7-carboxamide hydrochloride]: the “% viability after treatment” value (hydrochloride) is “B (B=26-50% viability)”.
For the compound `CN[C@@H](C)C(=O)N[C@H]1Cc2c([nH]c3ccccc23)[C@H]2CC(C)(C)C(C(=O)N[C@@H]3CCCc4ccccc43)N2C1=O` (stereo in doubt) [Compound 3, (3S, 6S,12bR)-2,2-dimethyl-6-((S)-2-(methylamino)propanamido)-5-oxo-N—((R)-1,2,3,4-tetrahydronaphthalen-1-yl)-1,2,3,5,6,7,12,12b-octahydropyrrolo[1′,2′:1,2]azepino[3,4-b]indole-3-carboxamide hydrochloride], the viability at 10 µM was above 50%.
The same measure, in the same setting: the figure for `CN[C@@H](C)C(=O)N[C@H]1CCO[C@H]2CC(C)(C)C(c3nc4ccccc4o3)N2C1=O` (stereo partly drawn) [Compound 72, (2S)—N-((4S,9aS)-7-(benzo[d]oxazol-2-yl)-8,8-dimethyl-5-oxooctahydropyrrolo[2,1-b][1,3]oxazepin-4-yl)-2-(methylamino)propanamide hydrochloride] is above 50%.
Same read-out and setting: next, `CN[C@@H](C)C(=O)N[C@H]1CCO[C@H]2CC(CCc3ccccc3)(CCc3ccccc3)[C@@H](C(=O)NC(c3ccccc3)c3ccccc3)N2C1=O` [Compound 62, (4S)—N-benzhydryl-4-((S)-2-(methylamino)propanamido)-5-oxo-8,8-diphenethyloctahydropyrrolo[2,1-b][1,3]oxazepine-7-carboxamide hydrochloride]: above 50%.
`C=CCC1(CC=C)C[C@@H]2OCC[C@H](NC(=O)[C@H](C)NC)C(=O)N2[C@@H]1C(=O)NC(c1ccccc1)c1ccccc1` [Compound 50, (4S)-8,8-diallyl-N-benzhydryl-4-((S)-2-(methylamino)propanamido)-5-oxooctahydropyrrolo[2,1-b][1,3]oxazepine-7-carboxamide hydrochloride]: under “hydrochloride”, the “% viability after treatment” value was “B (B=26-50% viability)”.
Turning to `CN[C@@H](C)C(=O)N[C@@H]1C(=O)N2[C@H](CC(C)[C@H]2C(=O)N[C@@H]2CCCc3ccccc32)OC2CCCCC21` (stereo partly shown) [Compound 64, hydrochloride], the viability at 10 µM lay in the range of 0 to 25%.

For the origin of these results see patent publication US20230295181A1, “INHIBITOR OF APOPTOSIS (IAP) PROTEIN ANTAGONISTS” (Sanford Burnham Prebys Medical Discovery Institute, priority 2020, published 2023).
